Test results: US20010051591A1, “Safening crops from the phytotoxic effects of herbicidally active N-phosphonomethyl-glycines” (priority 2000, published 2001)

How the values were obtained:
Format in all cases: in vivo
[1] = test system: two soybean varieties; assay: Example 1: average phytotoxic injury to the two soybean varieties; conditions: without Safening Composition A
Description: (§1) Glyphosate, tested as ROUNDUP® Ultra Herbicide (termed in Examples 1-3 as “Herbicidal Compound”), and COMMAND® 3 ME Herbicide comprised of at least one plant-safening, inorganic, water-soluble salt (calcium chloride), termed in Examples 1 and 2 as “Safening Composition A”, were tested as water solutions on two soybean varieties (Asgrow 2704 and Asgrow […]). The aforementioned solutions were sprayed in admixture as a tank mix onto flats of 12-day-old soybean plants arranged in a randomized, block design. There were four replicates for each rate of application. The soybean plants were evaluated at 21 days after treatment for percent phytotoxic injury by comparison to tests conducted on untreated plants and plants treated with Herbicidal Compound only. The rate of application clomazone for the Safening Composition A, and the rate of application of glyphosate for the Herbicidal Compound are expressed below in kg/ha.
For example, at the 0.2, 0.4, and 0.8 kg/ha rate of application of Herbicidal Compound, the average injury to the two soybean varieties is about 18%, 46%, and 70%, respectively.

[2] = test system: Rape; assay: Example 2: phytotoxic injury to crops, tank mix spray; conditions: glyphosate 0.8 kg/ha, clomazone 0 kg/ha; 14 days after treatment
Description: as §1
(§2) As set forth in Example 2, the Herbicidal Compound and Safening Composition A were tested in the same manner as described in Example 1. The aforementioned Herbicidal Compound and Safening Composition A were sprayed as a tank mix onto 10-14 day old crop and weed species. The tests were evaluated at 14 days after treatment for percent injury by comparison to tests conducted on untreated plants and weeds, and plants and weeds treated with Herbicidal Compound only.

[3] = test system: Sorghum; assay: as above; conditions: clomazone 0 kg/ha, 14 days after treatment
Description: as §1, §2

[4] = test system: Tomato; assay: as above; conditions: clomazone 0 kg/ha, 14 days after treatment
Description: as §1, §2

[5] = test system: Cucumber; assay: as above; conditions: glyphosate 0.4 kg/ha, clomazone 0 kg/ha; 14 days after treatment
Description: as §1, §2

[6] = test system: Corn; assay: as above; conditions: glyphosate 0.8 kg/ha, clomazone 0 kg/ha; 14 days after treatment
Description: as §1, §2

[7] = test system: Rice; assay: as above; conditions: glyphosate 0.4 kg/ha, clomazone 0 kg/ha; 14 days after treatment
Description: as §1, §2

[8] = test system: Pinto Bean; assay: as above; conditions: glyphosate 0.4 kg/ha, clomazone 0 kg/ha; 14 days after treatment
Description: as §1, §2

[9] = test system: soybean Variety A3234; assay: Example 1: phytotoxic injury to soybean, tank mix sprayed on 12-day-old plants; conditions: clomazone 0 kg/ha, 21 days after treatment
Description: (§3) The aforementioned solutions were sprayed in admixture as a tank mix onto flats of 12-day-old soybean plants arranged in a randomized, block design. There were four replicates for each rate of application. The soybean plants were evaluated at 21 days after treatment for percent phytotoxic injury by comparison to tests conducted on untreated plants and plants treated with Herbicidal Compound only. The rate of application clomazone for the Safening Composition A, and the rate of application of glyphosate for the Herbicidal Compound are expressed below in kg/ha.

[10] = test system: soybean variety Asgrow 2704; assay: as above; conditions: clomazone 0 kg/ha, 21 days after treatment
Description: as §3

O=C(O)CNCP(=O)(O)O [Herbicidal Compound, Glyphosate]
average injury to the two soybean varieties ([1]; glyphosate 0.2 kg/ha): about 18% | average injury to the two soybean varieties ([1]; glyphosate 0.4 kg/ha): ~46% | average injury to the two soybean varieties ([1]; glyphosate 0.8 kg/ha): ~70% | Percent Phytotoxic Injury Rape [2]: 84% | Percent Phytotoxic Injury Sorghum ([3]; glyphosate 0.4 kg/ha): 76% | Percent Phytotoxic Injury Sorghum ([3]; glyphosate 0.8 kg/ha): 100% | Percent Phytotoxic Injury Tomato ([4]; glyphosate 0.2 kg/ha): 95% | Percent Phytotoxic Injury Tomato ([4]; glyphosate 0.4 kg/ha): 100% | Percent Phytotoxic Injury Cucumber [5]: 77% | Percent Phytotoxic Injury Corn [6]: 90% | Percent Phytotoxic Injury Rice [7]: 65% | Percent Phytotoxic Injury Pinto Bean [8]: 63% | Percent Phytotoxic Injury To Soybean Variety A3234 ([9]; glyphosate 0.2 kg/ha): 22% | Percent Phytotoxic Injury To Soybean Variety A3234 ([9]; glyphosate 0.4 kg/ha): 54% | Percent Phytotoxic Injury To Soybean Variety A3234 ([9]; glyphosate 0.8 kg/ha): 81% | Percent Phytotoxic Injury To Soybean Variety A2704 ([10]; glyphosate 0.2 kg/ha): 14% | Percent Phytotoxic Injury To Soybean Variety A2704 ([10]; glyphosate 0.4 kg/ha): 38% | Percent Phytotoxic Injury To Soybean Variety A2704 ([10]; glyphosate 0.8 kg/ha): 60%
